Results: ChEMBL document CHEMBL1201862, “PubChem BioAssay data set” (2004)
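Cells were grown in 96-well plates and exposed to each compound for 48 hours at five concentrations; endpoints were interpolated linearly between bracketing concentrations, or set to the highest concentration if not reached. Here, GI50 denotes the concentration required for 50% inhibition of growth.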 Calls of active or inactive are those of the source. No stated cut-off is given here; in the data, active = GI50 up to about 1.1 µM and inactive = higher.

Experiments:
Assay in all cases: inhibition of tumour cell growth, NCI panel, 48 h
NCI-H226 = test system: NCI-H226
RPMI-8226 = test system: RPMI-8226
HCT-116 = test system: HCT-116
MDA-MB-231 = test system: MDA-MB-231
Malme-3M = test system: Malme-3M
EKVX = test system: EKVX
CAKI-1 = test system: CAKI-1
OVCAR-5 = test system: OVCAR-5
SNB-75 = test system: SNB-75
T47D = test system: T47D
A549 = test system: A549
IGROV-1 = test system: IGROV-1
A498 = test system: A498
SW-620 = test system: SW-620
NCI-H23 = test system: NCI-H23
UACC-257 = test system: UACC-257
SF-539 = test system: SF-539
BT-549 = test system: BT-549
SN12C = test system: SN12C
COLO 205 = test system: COLO 205
OVCAR-4 = test system: OVCAR-4
SR = test system: SR
UACC-62 = test system: UACC-62
SK-MEL-5 = test system: SK-MEL-5
PC-3 = test system: PC-3
Hs-578T = test system: Hs-578T
HOP-62 = test system: HOP-62
DU-145 = test system: DU-145
OVCAR-8 = test system: OVCAR-8
MOLT-4 = test system: MOLT-4
SK-OV-3 = test system: SK-OV-3
SF-268 = test system: SF-268
HT-29 = test system: HT-29
HCT-15 = test system: HCT-15
OVCAR-3 = test system: OVCAR-3
MDA-N = test system: MDA-N
SF-295 = test system: SF-295
NCI/ADR-RES = test system: NCI/ADR-RES
HCC 2998 = test system: HCC 2998
CCRF-CEM = test system: CCRF-CEM
M14 = test system: M14
NCI-H522 = test system: NCI-H522
KM12 = test system: KM12
U-251 = test system: U-251
LOX IMVI = test system: LOX IMVI
UO-31 = test system: UO-31
SK-MEL-2 = test system: SK-MEL-2
SNB-19 = test system: SNB-19
MCF7 = test system: MCF7
MDA-MB-435 = test system: MDA-MB-435
NCI-H460 = test system: NCI-H460
786-0 = test system: 786-0
HOP-92 = test system: HOP-92
ACHN = test system: ACHN
HL-60 = test system: HL-60
SK-MEL-28 = test system: SK-MEL-28
RXF 393 = test system: RXF 393
TK-10 = test system: TK-10
K562 = test system: K562

In the case of `COc1cc(OC)cc(N(C)Cc2cnc3nc(N)nc(N)c3c2C)c1`, the GI50 (NCI-H226) is reported as > 41.1 µM (inactive), the GI50 (RPMI-8226) is reported as > 22 µM (inactive) and the GI50 (HCT-116) is reported as 0.358 µM (active). The GI50 (MDA-MB-231) was 21.3 µM (inactive), the GI50 (Malme-3M) was 0.817 µM (active) and the GI50 (EKVX) was > 47.3 µM (inactive). The GI50 (CAKI-1) was 2.04 µM (inactive), the GI50 (OVCAR-5) was 0.757 µM (active) and the GI50 (SNB-75) was 0.0571 µM (active). For the same molecule, the GI50 (T47D) was 38.3 µM (inactive), the GI50 (A549) was 0.421 µM (active) and the GI50 (IGROV-1) was 0.838 µM (active). The GI50 (A498) was 18.7 µM (inactive), the GI50 (SW-620) was 0.585 µM (active) and the GI50 (NCI-H23) was 1.25 µM (inactive). The GI50 (UACC-257) was 1.56 µM (inactive), the GI50 (SF-539) was 0.385 µM (active) and the GI50 (BT-549) was > 25.7 µM (inactive). For the same molecule, the GI50 (SN12C) was 0.929 µM (active), the GI50 (COLO 205) was 12.6 µM (inactive) and the GI50 (OVCAR-4) was 20.1 µM (inactive). For the same molecule, the GI50 (SR) was 0.541 µM (active), the GI50 (UACC-62) was 0.719 µM (active) and the GI50 (SK-MEL-5) was 0.615 µM (active). The GI50 (PC-3) was 0.565 µM (active), the GI50 (Hs-578T) was > 68.5 µM (inactive) and the GI50 (HOP-62) was 0.995 µM (active). The GI50 (DU-145) was 4.71 µM (inactive), the GI50 (OVCAR-8) was 0.741 µM (active) and the GI50 (MOLT-4) was 0.741 µM (active). For the same molecule, the GI50 (SK-OV-3) was 13.6 µM (inactive), the GI50 (SF-268) was 0.745 µM (active) and the GI50 (HT-29) was 2.65 µM (inactive). For the same molecule, the GI50 (HCT-15) was 1.27 µM, the GI50 (OVCAR-3) was 9.66 µM (inactive) and the GI50 (MDA-N) was 0.631 µM (active). For the same molecule, the GI50 (SF-295) was 0.535 µM (active), the GI50 (NCI/ADR-RES) was 5.65 µM (inactive) and the GI50 (HCC 2998) was 3.52 µM (inactive). For the same molecule, the GI50 (CCRF-CEM) was 2.47 µM (inactive), the GI50 (M14) was 0.652 µM (active) and the GI50 (NCI-H522) was 2.21 µM (inactive). The GI50 (KM12) was 3.85 µM (inactive), the GI50 (U-251) was 0.543 µM (active) and the GI50 (LOX IMVI) was 1.16 µM (inactive). The GI50 (UO-31) was 5.52 µM (inactive), the GI50 (SK-MEL-2) was > 51.5 µM (inactive) and the GI50 (SNB-19) was 12.9 µM (inactive). The GI50 (MCF7) was 0.92 µM (active), the GI50 (MDA-MB-435) was 0.759 µM (active) and the GI50 (NCI-H460) was 0.474 µM (active). The GI50 (786-0) was 0.427 µM (active), the GI50 (HOP-92) was 13.3 µM (inactive) and the GI50 (ACHN) was 0.746 µM (active).

With `O=C(NCCNCCNC(=O)C(F)(F)F)C(F)(F)F` the GI50 (NCI-H226) was > 100 µM (inactive), the GI50 (RPMI-8226) was > 100 µM (inactive) and the GI50 (HCT-116) was > 100 µM (inactive). For the same molecule, the GI50 (MDA-MB-231) was > 100 µM (inactive), the GI50 (HL-60) was > 100 µM (inactive) and the GI50 (Malme-3M) was > 100 µM (inactive). The GI50 (EKVX) was > 100 µM (inactive), the GI50 (CAKI-1) was > 100 µM (inactive) and the GI50 (OVCAR-5) was > 100 µM (inactive). For the same molecule, the GI50 (T47D) was > 100 µM (inactive), the GI50 (A549) was > 100 µM (inactive) and the GI50 (IGROV-1) was > 100 µM (inactive). The GI50 (SK-MEL-28) was > 100 µM (inactive), the GI50 (SW-620) was > 100 µM (inactive) and the GI50 (NCI-H23) was > 100 µM (inactive). The GI50 (UACC-257) was > 100 µM (inactive), the GI50 (BT-549) was > 100 µM (inactive) and the GI50 (SN12C) was > 100 µM (inactive). The GI50 (COLO 205) was > 100 µM (inactive), the GI50 (OVCAR-4) was > 100 µM (inactive) and the GI50 (SR) was > 100 µM (inactive). For the same molecule, the GI50 (UACC-62) was > 100 µM (inactive), the GI50 (SK-MEL-5) was > 100 µM (inactive) and the GI50 (PC-3) was > 100 µM (inactive). For the same molecule, the GI50 (Hs-578T) was > 100 µM (inactive), the GI50 (HOP-62) was > 100 µM (inactive) and the GI50 (DU-145) was > 100 µM (inactive). For the same molecule, the GI50 (OVCAR-8) was > 100 µM (inactive), the GI50 (MOLT-4) was > 100 µM (inactive) and the GI50 (SK-OV-3) was > 100 µM (inactive). The GI50 (SF-268) was > 100 µM (inactive), the GI50 (HT-29) was > 100 µM (inactive) and the GI50 (RXF 393) was > 100 µM (inactive). For the same molecule, the GI50 (HCT-15) was greater than 100 µM, the GI50 (OVCAR-3) was > 100 µM (inactive) and the GI50 (MDA-N) was > 100 µM (inactive). The GI50 (SF-295) was > 100 µM (inactive), the GI50 (NCI/ADR-RES) was > 100 µM (inactive) and the GI50 (HCC 2998) was > 100 µM (inactive). For the same molecule, the GI50 (CCRF-CEM) was > 100 µM (inactive), the GI50 (M14) was > 100 µM (inactive) and the GI50 (KM12) was > 100 µM (inactive). For the same molecule, the GI50 (U-251) was > 100 µM (inactive), the GI50 (TK-10) was > 100 µM (inactive) and the GI50 (LOX IMVI) was > 100 µM (inactive). The GI50 (K562) was > 100 µM (inactive), the GI50 (UO-31) was > 100 µM (inactive) and the GI50 (SK-MEL-2) was > 100 µM (inactive). For the same molecule, the GI50 (SNB-19) was > 100 µM (inactive), the GI50 (MCF7) was > 100 µM (inactive) and the GI50 (MDA-MB-435) was > 100 µM (inactive). For the same molecule, the GI50 (786-0) was > 100 µM (inactive) and the GI50 (ACHN) was > 100 µM (inactive).

With `CC(C)c1ccc2c(c1)/C(=C1/Nc3ccccc3C1=O)C(=O)N2` the GI50 (NCI-H226) was 3.62 µM (inactive), the GI50 (RPMI-8226) was 27.8 µM (inactive) and the GI50 (HCT-116) was 11.3 µM (inactive). The GI50 (MDA-MB-231) was 5.85 µM (inactive), the GI50 (Malme-3M) was 46.8 µM (inactive) and the GI50 (EKVX) was 5.7 µM (inactive). For the same molecule, the GI50 (CAKI-1) was 14.3 µM (inactive), the GI50 (OVCAR-5) was 27.7 µM (inactive) and the GI50 (SNB-75) was 3.4 µM (inactive). The GI50 (T47D) was 0.557 µM (active), the GI50 (A549) was 15.3 µM (inactive) and the GI50 (IGROV-1) was 1.45 µM (inactive). The GI50 (A498) was 2.34 µM (inactive), the GI50 (SK-MEL-28) was > 100 µM (inactive) and the GI50 (SW-620) was 43.3 µM (inactive). The GI50 (NCI-H23) was 24.4 µM (inactive), the GI50 (UACC-257) was 61.8 µM (inactive) and the GI50 (BT-549) was 18.1 µM (inactive). For the same molecule, the GI50 (SN12C) was 20.9 µM (inactive), the GI50 (COLO 205) was > 100 µM (inactive) and the GI50 (OVCAR-4) was 1.7 µM (inactive). The GI50 (SR) was 18.4 µM (inactive), the GI50 (UACC-62) was 14.9 µM (inactive) and the GI50 (SK-MEL-5) was 27.2 µM (inactive). For the same molecule, the GI50 (PC-3) was 8.85 µM (inactive), the GI50 (Hs-578T) was 7.64 µM (inactive) and the GI50 (HOP-62) was 4.57 µM (inactive). The GI50 (DU-145) was 15.2 µM (inactive), the GI50 (OVCAR-8) was 10.6 µM (inactive) and the GI50 (MOLT-4) was 22.1 µM (inactive). The GI50 (SK-OV-3) was 3.75 µM (inactive), the GI50 (SF-268) was 15.3 µM (inactive) and the GI50 (HT-29) was 26.8 µM (inactive). For the same molecule, the GI50 (RXF 393) was 1.42 µM (inactive), the GI50 (HCT-15) was 36.5 µM and the GI50 (OVCAR-3) was 19 µM (inactive). The GI50 (MDA-N) was 28.8 µM (inactive), the GI50 (SF-295) was 14.8 µM (inactive) and the GI50 (NCI/ADR-RES) was 17 µM (inactive). For the same molecule, the GI50 (HCC 2998) was 19.2 µM (inactive), the GI50 (CCRF-CEM) was 27.3 µM (inactive) and the GI50 (M14) was 33.6 µM (inactive). The GI50 (NCI-H522) was 25.5 µM (inactive), the GI50 (KM12) was 0.0973 µM (active) and the GI50 (U-251) was 10.6 µM (inactive). The GI50 (TK-10) was 5.01 µM (inactive), the GI50 (LOX IMVI) was > 100 µM (inactive) and the GI50 (K562) was 33.7 µM (inactive). The GI50 (UO-31) was 6.5 µM (inactive), the GI50 (SK-MEL-2) was 14.3 µM (inactive) and the GI50 (SNB-19) was 13 µM (inactive). The GI50 (MCF7) was 0.0188 µM (active), the GI50 (MDA-MB-435) was 25.8 µM (inactive) and the GI50 (NCI-H460) was 9.27 µM (inactive). The GI50 (786-0) was 3.52 µM (inactive), the GI50 (HOP-92) was 4.58 µM (inactive) and the GI50 (ACHN) was 3.71 µM (inactive).
